Assay results taken from ChEMBL document CHEMBL5131397, “Discovery and Optimization of Pyrazole Amides as Inhibitors of ELOVL1” (J Med Chem, 2021).
Calls of active or inactive are those of the source. The rule behind the calls is not given here.

What was measured:
[1] = Half life in Beagle dog at 0.5 mg/kg, iv upto 48 hrs by LC/MS/MS analysis; type: ADME, organism-based, Canis lupus familiaris; conditions: in vivo
[2] = Reduction in C26:0/C16:0 LPC level in ABCD1 knock out mouse CNS at 8 mg/kg, po qd measured after 6 months of dosing by LC-MS/MS analysis; type: functional; set-up: scale not given: the % may be the effect or the level left; conditions: 4380 h
[3] = Clearance in mouse at 1 mg/kg, iv upto 48 hrs by LC/MS/MS analysis; type: ADME, organism-based; conditions: in vivo
[4] = AUC (infinity) in Cynomolgus monkey at 3 mg/kg, po upto 24 hrs by LC/MS/MS analysis; type: ADME, organism-based, Macaca fascicularis; set-up: dose 3 mg/kg, time < 24 hrs, route po; conditions: in vivo
[5] = Toxicity in Cynomolgus monkey assessed as minimal focal gliosis at 20 to 50 mg/kg/day, po administered for 14 days; type: organism-based, Macaca fascicularis; conditions: in vivo, 336 h, dose 20-50 mg/kg/day, time 14 day
[6] = Reduction in C26:0/C16:0 LPC level in wild-type Sprague-Dawley rat at 300 mg/kg, po qd treated for 7 days by LC-MS/MS analysis; type: functional; set-up: scale not given: the % may be the effect or the level left; conditions: time 7 day
Mus musculus [7] = assay: Reduction of C26:0 LPC level in ABCD1 knock out mouse blood at 1 to 16 mg/kg, po qd measured after 6 days of dosing by LC-MS/MS analysis; type: functional, organism-based; conditions: dose 1-16 mg/kg, time 6.0 day
[8] = Reduction in C26:0/C16:0 LPC level in ABCD1 knock out mouse CNS at 4 mg/kg, po qd measured after 6 months of dosing by LC-MS/MS analysis; type: functional; set-up: scale not given: the % may be the effect or the level left; conditions: 4380 h
[9] = Reduction of C26:0 /C16:0 LPC level in ABCD1 KO mouse blood at 5 mg/kg, po qd for 8 months by LC-MS/MS analysis relative to control; type: functional; set-up: scale not given: the % may be the effect or the level left; conditions: 5840 h
[10] = Toxicity in Sprague-Dawley rat assessed as erosion of forestomach at 5 to 50 mg/kg/day, po administered for 2 to 8 weeks; type: organism-based; conditions: in vivo, dose lower 5 mg/kg/day, time lower 2 weeks, dose upper 50 mg/kg/day, time upper 8 weeks
[11] = target: T1, Very long chain fatty acid elongase 1 (Homo sapiens, UniProt Q9BW60); assay: Inhibition of ELOVL1 in AMN 2 patient-derived fibroblast assessed as reduction of C26:0 VLCFA synthesis incubated for 48 hrs by cellular assay; type: cell-based
T1 sequence (Q9BW60 whole entry): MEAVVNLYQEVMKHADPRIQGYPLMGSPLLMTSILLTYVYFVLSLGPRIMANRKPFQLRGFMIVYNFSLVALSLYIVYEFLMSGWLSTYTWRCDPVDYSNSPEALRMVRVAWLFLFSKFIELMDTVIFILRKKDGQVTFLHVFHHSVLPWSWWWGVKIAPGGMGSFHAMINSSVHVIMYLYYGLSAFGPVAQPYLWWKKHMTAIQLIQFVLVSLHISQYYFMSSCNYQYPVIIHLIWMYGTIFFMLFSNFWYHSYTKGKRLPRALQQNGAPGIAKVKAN

[12] = Toxicity in Cynomolgus monkey assessed as ataxia at 50 mg/kg/day, po administered for 14 days; type: organism-based, Macaca fascicularis; conditions: in vivo, 336 h, time 14 day
[13] = Toxicity in Cynomolgus monkey assessed as dry and red scaly areas on abdomen at 5 to 50 mg/kg/day, po administered for 14 days by macroscopic observation analysis; type: organism-based, Macaca fascicularis; conditions: in vivo, 336 h, dose 5-50 mg/kg/day, time 14 day
[14] = Toxicity in Sprague-Dawley rat assessed as corneal abnormalities at 5 mg/kg/day, po administered for 8 weeks measured after cessation of dosing; type: organism-based; conditions: in vivo, 1344 h
[15] = Toxicity in Sprague-Dawley rat assessed as corneal opacities at 5 mg/kg/day, po administered for 8 weeks by macroscopic observation analysis; type: organism-based; conditions: in vivo, 1344 h
[16] = Reduction in C26:0 LPC level in ABCD1 knock out mouse CNS at 16 mg/kg, po qd measured after 6 months of dosing by LC-MS/MS analysis; type: functional; set-up: scale not given: the % may be the effect or the level left; conditions: 4380 h
Mus musculus [17] = assay: Reduction in C26:0 LPC level in ABCD1 KO mouse blood administered orally qd for 105 days by LC-MS/MS analysis; type: functional, tissue-based; conditions: route po, time 105.0 day, DDE = dose-dependent effect
[18] = Apparent permeability across apical to basolateral side in wild-type dog MDCK cells by LC-MS analysis; type: ADME, cell-based, Canis lupus familiaris
[19] = Volume of distribution at steady state in Sprague-Dawley rat at 1 mg/kg, iv upto 48 hrs by LC/MS/MS analysis; type: ADME, organism-based; conditions: in vivo, read-out: Vdss
[20] = Reduction in C26:0 LPC level in ABCD1 knock out mouse CNS at 4 mg/kg, po qd measured after 6 months of dosing by LC-MS/MS analysis; type: functional; set-up: scale not given: the % may be the effect or the level left; conditions: 4380 h
[21] = Lipophilicity, logD of compound at pH 7.4; type: physicochemical; conditions: buffer
[22] = target: T1, Very long chain fatty acid elongase 1; assay: Inhibition of ELOVL1 in AMN 1 patient-derived fibroblast assessed as reduction of C26:0 VLCFA synthesis incubated for 48 hrs by cellular assay; type: cell-based
HepG2 = assay: Cytotoxicity against human HepG2 cells assessed as decrease in intracellular ATP levels incubated for 72 hrs by Cell Titer-Glo luminescence assay; type: functional; conditions: read-out: TC50 (the source's name)
[23] = Reduction in C26:0/C16:0 LPC level in ABCD1 knock out mouse CNS at 5 mg/kg, po qd measured after 8 months of dosing by LC-MS/MS analysis; type: functional; set-up: scale not given: the % may be the effect or the level left; conditions: 5840 h
[24] = Toxicity in Sprague-Dawley rat assessed as corneal neovascularization at 5 mg/kg/day, po administered for 8 weeks by macroscopic observation analysis; type: organism-based; conditions: in vivo, 1344 h
[25] = Clearance in Beagle dog at 0.5 mg/kg, iv upto 48 hrs by LC/MS/MS analysis; type: ADME, organism-based, Canis lupus familiaris; conditions: in vivo
Mus musculus [26] = assay: Reduction in C26:0 LPC level in wild-type C57BL/6 mouse blood administered orally qd for 105 days by LC-MS/MS analysis; type: functional, tissue-based; conditions: route po, time 105.0 day, DDE = dose-dependent effect
Mus musculus [27] = assay: Reversal of loss of thermal pain sensitivity in ABCD1 knock out mouse assessed as increase in latency at 8 to 32 mg/kg, po qd treated for 6 months by Hargreaves test; type: functional, organism-based; conditions: dose 8-32 mg/kg
[28] = Reduction in C26:0 LPC level in ABCD1 knock out mouse blood at 0.5 mg/kg, po qd for 105 days by LC-MS/MS analysis relative to control; type: functional; set-up: scale not given: the % may be the effect or the level left; conditions: time 105 day
[29] = Cytotoxicity against human THLE-2 cells assessed as decrease in intracellular ATP levels incubated for 72 hrs by Cell Titer-Glo luminescence assay; type: toxicity, cell-based; conditions: read-out: TC50

half-life [1]: 3.5 h
clearance [3]: 10.7 mL/min/kg
AUC(0-inf) [4]: 7700 ng·h/mL
IC50 [11]: 17 nM
Papp A→B [18]: 10.1 ×10⁻⁶ cm/s
Vd [19]: 4 L/kg
logD [21]: 3.2
IC50 [22]: 43 nM
clearance [25]: 30.4 mL/min/kg
Compound: O=C(Nc1ccn(-c2ccnc(F)c2)n1)C1(c2ccccc2F)CC1
Activity [2]: 54%
Activity [5]: Toxic
Activity [6]: 85%
Activity (Mus musculus [7]): Active
Activity [8]: 57%
Activity [9]: 60%
Activity [10]: Toxic
Activity [12]: Toxic
Activity [13]: Toxic
Activity [14]: Toxic
Activity [15]: Toxic
Activity [16]: 51%
Activity (Mus musculus [17]): Dde
Activity [20]: 57%
CC50 (HepG2): > 100000 nM
Activity [23]: 65%
Activity [24]: Toxic
Activity (Mus musculus [26]): Dde
Activity (Mus musculus [27]): Active
Activity [28]: 50%
CC50 at 72 h [29]: > 100000 nM
